The supplement of paper PMC11451515

Test system: SEM cells
Experiment: cell viability relative to DMSO control; higher = less cytotoxic
Conditions: 48 h
Procedure, shortened: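 Three leukemia lines were tested: NOMO1 and SEM at 500 cells/well and P12-Ichikawa at 1000 cells/well. Each was adapted for at least four passages in each medium and seeded in 5 μl in 1536-well plates, and library compounds in DMSO were pin-dosed from 47 μM to 0.79 nM in 11 threefold steps. After 48 h at 37°C, CellTiter-Glo One luminescence was read. Viability is a percentage relative to DMSO wells on each plate, with cell-free wells as background.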

[1] = HPLM + 10% dialyzed FBS, 0.000781 µM
[2] = HPLM + 10% dialyzed FBS, 0.00234 µM
[3] = HPLM + 10% dialyzed FBS, 0.00702 µM
[4] = HPLM + 10% dialyzed FBS, 0.0211 µM
[5] = HPLM + 10% dialyzed FBS, 0.0632 µM
[6] = HPLM + 10% dialyzed FBS, 0.19 µM
[7] = HPLM + 10% dialyzed FBS, 0.569 µM
[8] = HPLM + 10% dialyzed FBS, 1.71 µM
[9] = HPLM + 10% dialyzed FBS, 5.12 µM
[10] = HPLM + 10% dialyzed FBS, 15.4 µM
[11] = HPLM + 10% dialyzed FBS, 46.1 µM
[12] = RPMI 5 mM glucose + 10% FBS, 0.000781 µM
[13] = RPMI 5 mM glucose + 10% FBS, 0.00234 µM
[14] = RPMI 5 mM glucose + 10% FBS, 0.00702 µM
[15] = RPMI 5 mM glucose + 10% FBS, 0.0211 µM
[16] = RPMI 5 mM glucose + 10% FBS, 0.0632 µM
[17] = RPMI 5 mM glucose + 10% FBS, 0.19 µM
[18] = RPMI 5 mM glucose + 10% FBS, 0.569 µM
[19] = RPMI 5 mM glucose + 10% FBS, 1.71 µM
[20] = RPMI 5 mM glucose + 10% FBS, 5.12 µM
[21] = RPMI 5 mM glucose + 10% FBS, 15.4 µM
[22] = RPMI 5 mM glucose + 10% FBS, 46.1 µM
[23] = RPMI 5 mM glucose + 10% dialyzed FBS, 0.000781 µM
[24] = RPMI 5 mM glucose + 10% dialyzed FBS, 0.00234 µM
[25] = RPMI 5 mM glucose + 10% dialyzed FBS, 0.00702 µM
[26] = RPMI 5 mM glucose + 10% dialyzed FBS, 0.0211 µM
[27] = RPMI 5 mM glucose + 10% dialyzed FBS, 0.0632 µM
[28] = RPMI 5 mM glucose + 10% dialyzed FBS, 0.19 µM
[29] = RPMI 5 mM glucose + 10% dialyzed FBS, 0.569 µM
[30] = RPMI 5 mM glucose + 10% dialyzed FBS, 1.71 µM
[31] = RPMI 5 mM glucose + 10% dialyzed FBS, 5.12 µM
[32] = RPMI 5 mM glucose + 10% dialyzed FBS, 15.4 µM
[33] = RPMI 5 mM glucose + 10% dialyzed FBS, 46.1 µM

Row | Structure (SMILES) | cell viability [1] [%] | cell viability [2] [%] | cell viability [3] [%] | cell viability [4] [%] | cell viability [5] [%] | cell viability [6] [%] | cell viability [7] [%] | cell viability [8] [%] | cell viability [9] [%] | cell viability [10] [%] | cell viability [11] [%] | cell viability [12] [%] | cell viability [13] [%] | cell viability [14] [%] | cell viability [15] [%] | cell viability [16] [%] | cell viability [17] [%] | cell viability [18] [%] | cell viability [19] [%] | cell viability [20] [%] | cell viability [21] [%] | cell viability [22] [%] | cell viability [23] [%] | cell viability [24] [%] | cell viability [25] [%] | cell viability [26] [%] | cell viability [27] [%] | cell viability [28] [%] | cell viability [29] [%] | cell viability [30] [%] | cell viability [31] [%] | cell viability [32] [%] | cell viability [33] [%]
1 | NCCc1ccc(O)c(O)c1 | 119 | 137 | 121 | 133 | 130 | 132 | 131 | 110 | 109 | 86 | 8.51 | 113 | 136 | 123 | 123 | 127 | 139 | 122 | 96.5 | 128 | 107 | 18.6 | 99 | 124 | 107 | 111 | 123 | 111 | 109 | 105 | 107 | 95.2 | 11.5
2 | Cc1nc(N)ncc1-c1nc(N2CCOCC2)c2sc(C(C)(C)O)cc2n1 | 97.7 | 114 | 118 | 118 | 113 | 40.1 | 14.2 | 9.64 | 8.13 | 7.64 | 5.09 | 92.7 | 85.3 | 78.2 | 74.2 | 13.6 | 11.7 | 9.07 | 7.73 | 6.03 | 5.59 | 4.95 | 115 | 130 | 112 | 122 | 79.5 | 17.6 | 13 | 9.39 | 7.85 | 6.82 | 5.41
3 | Oc1ccc2ccccc2c1SSc1c(O)ccc2ccccc12 | 95 | 102 | 109 | 116 | 106 | 85.8 | 99.5 | 96.2 | 108 | 97.3 | 9.05 | 104 | 109 | 95 | 102 | 111 | 79.1 | 103 | 99.4 | 104 | 78.9 | 30 | 95 | 99.6 | 84.3 | 113 | 92.5 | 66.9 | 93.1 | 104 | 87.6 | 74.7 | 20.1
4 | COc1cc(Cl)cn2c(-c3cccc(NC4CNC4)n3)cnc12 | 114 | 117 | 131 | 121 | 133 | 116 | 125 | 90.8 | 128 | 105 | 96.8 |  |  |  |  |  |  |  |  |  |  |  |  |  |  |  |  |  |  |  |  |  | 
5 | CN(C)CCOc1ccc(/C(=C(/CCCl)c2ccccc2)c2ccccc2)cc1 | 54.7 | 92.8 | 85.2 | 94.2 | 108 | 85.6 | 88 | 94.6 | 58.5 | 34 | 16.5 | 54.5 | 100 | 74.7 | 96.7 | 98.4 | 99.5 | 100 | 74.8 | 39.5 | 22.1 | 11.9 | 45.9 | 96.8 | 83.6 | 102 | 117 | 97.5 | 85.8 | 85.2 | 57.6 | 36.1 | 22.6
6 | Cc1cccc2c1CC[C@H](CN1CCC(c3c(Cl)cccc3Cl)CC1)C[C@@H]2O | 71 | 98.2 | 113 | 111 | 128 | 114 | 116 | 122 | 101 | 96.6 | 79.9 | 112 | 138 | 120 | 127 | 130 | 111 | 142 | 133 | 108 | 72.5 | 58 | 88.5 | 109 | 118 | 126 | 120 | 95.8 | 104 | 112 | 91.9 | 70.6 | 58.3
7 | Clc1ccccc1C(c1ccccc1)(c1ccccc1)n1ccnc1 | 118 | 114 | 126 | 121 | 117 | 119 | 112 | 55.8 | 103 | 104 | 73.3 | 117 | 110 | 126 | 123 | 118 | 108 | 106 | 53.3 | 101 | 86.6 | 69.6 |  |  |  |  |  |  |  |  |  |  | 
8 | N[C@@H](Cc1ccc(O)c(O)c1)C(=O)O | 86.4 | 101 | 102 | 100 | 107 | 108 | 108 | 111 | 122 | 107 | 109 | 108 | 100 | 107 | 108 | 116 | 115 | 106 | 116 | 126 | 121 | 127 | 92.1 | 97.6 | 108 | 116 | 117 | 116 | 117 | 123 | 122 | 128 | 105
9 | CC(S)C(=O)NCC(=O)O (configuration not stated) | 40 | 99 | 59.5 | 95 | 105 | 101 | 92.8 | 103 | 90.6 | 113 | 95 | 33 | 102 | 50.5 | 87.8 | 114 | 105 | 101 | 105 | 84 | 109 | 108 | 35.6 | 92.5 | 45 | 101 | 123 | 108 | 114 | 118 | 80.7 | 119 | 104
10 | COC(=O)Nc1nc2ccc([S+]([O-])c3ccccc3)cc2[nH]1 (configuration not stated) | 77.9 | 97.3 | 96.5 | 100 | 99.5 | 94.5 | 87.9 | 94.4 | 84 | 59.3 | 57.7 | 113 | 114 | 109 | 104 | 116 | 111 | 107 | 121 | 89.6 | 67.7 | 63 | 106 | 112 | 113 | 111 | 124 | 122 | 105 | 122 | 102 | 59.6 | 69.4
11 | C[N]1N=CC=C1C/2=C(\C)N(C(=O)C(=C2)/C(=O)NCC3=NC=C(C=C3)[S+](C)([O-])=O)C4=CC=CC(=C4)C(F)(F)F | 96 | 98.3 | 100 | 103 | 105 | 103 | 99.5 | 105 | 91.2 | 95.4 | 77.9 |  |  |  |  |  |  |  |  |  |  |  | 90 | 105 | 120 | 126 | 115 | 112 | 108 | 115 | 100 | 107 | 76
12 | N=C(N)NC(=N)N1CCOCC1 | 97.7 | 97.2 | 112 | 98 | 99.1 | 105 | 109 | 103 | 86.4 | 98.9 | 112 | 94 | 94.5 | 99.7 | 96.2 | 105 | 104 | 113 | 93.4 | 71.2 | 100 | 106 | 104 | 114 | 107 | 104 | 106 | 100 | 111 | 93.6 | 114 | 92.3 | 110
13 | CN(C)[C@@H](CCOc1cccc2ccccc12)c1ccccc1 | 139 | 115 | 125 | 110 | 119 | 120 | 100 | 108 | 111 | 107 | 65 | 120 | 122 | 122 | 127 | 132 | 131 | 103 | 118 | 95.7 | 114 | 71.2 | 101 | 121 | 117 | 127 | 131 | 129 | 91.5 | 132 | 101 | 136 | 81
14 | COC(=O)[C@H](c1ccccc1Cl)N1CCc2sccc2C1 | 75.5 | 89.5 | 105 | 110 | 96.3 | 111 | 106 | 120 | 109 | 121 | 111 | 87.5 | 80.4 | 97.2 | 98.9 | 93.3 | 102 | 106 | 103 | 107 | 107 | 108 | 84.1 | 84.1 | 86.5 | 108 | 110 | 91.6 | 95.3 | 135 | 116 | 122 | 99.5
15 | COc1ccc(-c2oc3cc(OC)ccc3c2C(=O)c2ccc(C#N)cc2)cc1 | 114 | 117 | 120 | 121 | 128 | 136 | 129 | 141 | 131 | 142 | 125 | 93.2 | 109 | 133 | 127 | 130 | 140 | 139 | 148 | 136 | 123 | 124 | 113 | 123 | 144 | 124 | 150 | 175 | 162 | 174 | 147 | 136 | 136
16 | COc1cc2ncn(-c3cc(OCc4ccccc4C(F)(F)F)c(C(N)=O)s3)c2cc1OC | 120 | 121 | 116 | 115 | 115 | 104 | 110 | 65.3 | 28.6 | 22.4 | 20.7 | 124 | 121 | 122 | 115 | 124 | 105 | 128 | 74 | 18.4 | 13.4 | 13.1 | 108 | 112 | 124 | 120 | 116 | 142 | 139 | 103 | 25.9 | 20.3 | 19.5
17 | OCCN(CCO)c1nc(N2CCCCC2)c2nc(N(CCO)CCO)nc(N3CCCCC3)c2n1 | 108 | 111 | 109 | 109 | 118 | 119 | 117 | 114 | 99.3 | 89.9 | 82.4 | 120 | 111 | 118 | 120 | 127 | 124 | 111 | 104 | 111 | 103 | 72.4 | 128 | 120 | 113 | 104 | 121 | 102 | 143 | 131 | 116 | 106 | 67.8
